Assay results from paper PMC5380162, “Characterization of a novel N-acetylneuraminic acid lyase favoring N-acetylneuraminic acid synthesis” (Scientific Reports, 2015).

Tests used:
Format in all cases: biochemical
CgNal [1] = target: T1, CgNal (Corynebacterium glutamicum, UniProt Q8NMD2); experiment: HPLC of substrates and products, Neu5Ac synthesis; conditions: 0.1 M Tris-HCl pH 7.5, assay at 37 °C, synthesis direction
T1 construct: gene Cgl2646; full length 312 aa (939 bp ORF), pET-28a(+), N-terminal His6-tag, E. coli Rosetta (DE3) pLysS, ~33 kDa, Ni-NTA; NAL family homotetramer
Excerpt: HPLC of substrates and products, Neu5Ac synthesis on CgNal

EcDHDPS = target: T2, EcDHDPS (Escherichia coli, UniProt P0A6L2); experiment: coupled enzymatic assay (Yugari and Gilvarg); conditions: co-substrate pyruvate
T2 construct: gene dapA; dapA amplified from E. coli genomic DNA into pET-28a(+), expressed in E. coli Rosetta, Ni-NTA
T2 sequence (P0A6L2 1-292): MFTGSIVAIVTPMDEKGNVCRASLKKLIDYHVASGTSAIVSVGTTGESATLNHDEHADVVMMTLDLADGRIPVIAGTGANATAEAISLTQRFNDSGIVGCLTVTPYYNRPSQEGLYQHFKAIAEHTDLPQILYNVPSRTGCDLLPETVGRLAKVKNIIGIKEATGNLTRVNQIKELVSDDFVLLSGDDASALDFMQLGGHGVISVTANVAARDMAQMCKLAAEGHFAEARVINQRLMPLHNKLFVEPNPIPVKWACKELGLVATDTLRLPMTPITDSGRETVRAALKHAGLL

CgNal [2] = target: T1, CgNal; experiment: HPLC of substrates and products, Neu5Ac cleavage; conditions: read-out: Neu5Ac Cleavage / Neu5Ac / Km; 0.1 M Tris-HCl pH 7.5, assay at 37 °C; cleavage direction
Excerpt: HPLC of substrates and products, Neu5Ac cleavage on CgNal

T1 sequence (Q8NMD2 entry or part of it): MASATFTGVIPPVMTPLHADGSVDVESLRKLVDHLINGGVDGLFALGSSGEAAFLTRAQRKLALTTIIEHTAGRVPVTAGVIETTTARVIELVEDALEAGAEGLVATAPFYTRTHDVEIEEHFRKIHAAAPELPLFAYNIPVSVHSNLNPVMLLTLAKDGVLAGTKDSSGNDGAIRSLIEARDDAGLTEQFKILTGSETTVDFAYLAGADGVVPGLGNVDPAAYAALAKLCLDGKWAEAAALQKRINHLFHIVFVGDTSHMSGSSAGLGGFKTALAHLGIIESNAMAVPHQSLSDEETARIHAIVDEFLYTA

With `CC(=O)C(=O)O` [pyruvate] the Km (CgNal [1]; read-out: Neu5Ac Synthesis / Pyruvate / Km, ManNAc fixed at 50 mM) was 14.7 mM.

`CC(=O)N[C@@H]1C(O)O[C@H](CO)[C@@H](O)[C@@H]1O` (stereo partly shown) [ManNAc] showed a Km (CgNal [1]; read-out: Neu5Ac Synthesis / ManNAc / Km, pyruvate fixed at 100 mM) of 53.3 mM.

For `N[C@@H](CC=O)C(=O)O` [ASA], the “coupled enzymatic assay (Yugari and Gilvarg)” value (EcDHDPS) was “Using ASA as substrate, CgNal showed only half the activity of EcDHDPS”.

In the case of `CC(=O)N[C@H]1[C@H]([C@H](O)[C@H](O)CO)OC(O)(C(=O)O)C[C@@H]1O` (stereo partly shown) [Neu5Ac], the Km (CgNal [2]) is reported as 33.5 mM.
